Results taken from the supplement of paper PMC8497498.

What was measured:
Settings in all cases: assay mode: Radical Cure, 8-day (treatment from day 5 post-infection)
[1] = tested on: Plasmodium vivax liver stage (primary human hepatocyte culture); test: maximum inhibition of schizont net growth area; higher = more active
Method: (§1)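 Dose-response of P. vivax liver stages in primary human hepatocytes, with 8 points (10 uM-[…], v1) or 12 points in duplicate (50 uM-280 pM, v2). Read-out is high-content imaging of schizont net growth area, hypnozoite quantity and hepatic nuclei. EC50 and CC20 (20% nuclei loss) were fitted in CDD Vault from the highest-quality independent experiment; toxic-dose bell-shaped points were masked. '>' marks the highest concentration with less than 50% activity, and ND means a non-sigmoidal curve.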

[2] = tested on: primary human hepatocytes; test: CC20 hepatic nuclei (20% reduction); higher = less toxic
Method: as §1

[3] = tested on: Plasmodium vivax liver stage (primary human hepatocyte culture)
Method: as §1

[4] = P. vivax isolate: Pv395, hepatocyte lot: UBV
[5] = P. vivax isolate: Pv657, hepatocyte lot: BGW
[6] = P. vivax isolate: Pv728, hepatocyte lot: BGW
[7] = P. vivax isolate: Pv557, hepatocyte lot: UBV
[8] = P. vivax isolate: Pv668, hepatocyte lot: BGW
[9] = P. vivax isolate: Pv590, hepatocyte lot: UBV
[10] = P. vivax isolate: Pv458, hepatocyte lot: UBV
[11] = P. vivax isolate: Pv756, hepatocyte lot: BGW

For `c1ccc(-c2csc(Nc3nc4cc5c(cc4s3)OCO5)n2)nc1`, which maximum inhibition [1, 4] is on record?
The maximum inhibition was 72.6%.

What about the CC20 hepatic nuclei [2, 4] of the same compound?
Its CC20 hepatic nuclei is over 10 µM.

What about the EC50 hypnozoite quantity [3, 4] of the same compound?
Its EC50 hypnozoite quantity is over 10 µM.

What about the “EC50 schizont net growth area” value [3, 4] of the same compound?
The value was over 3.33 µM.

For `CC(C)(C)n1nc(-c2ccccc2)c2c(N)ncnc21`, which maximum inhibition [1, 5] is on record?
Its maximum inhibition is 76.7%.

What about the CC20 hepatic nuclei [2, 5] of the same compound?
The CC20 hepatic nuclei was over 50 µM.

What about the EC50 hypnozoite quantity [3, 5] of the same compound?
Its EC50 hypnozoite quantity is over 50 µM.

What about the “EC50 schizont net growth area” value [3, 5] of the same compound?
The value was over 16.7 µM.

With `CC1(CN2CCC(n3c(O)nc4ccccc43)CC2)OCc2ccccc2-n2cccc21` (stereo not given) as the compound, how does the maximum inhibition [1, 6] read?
Its maximum inhibition is 99.2%.

What about the CC20 hepatic nuclei [2, 6] of the same compound?
Its CC20 hepatic nuclei is over 10 µM.

What about the EC50 hypnozoite quantity [3, 6] of the same compound?
The EC50 hypnozoite quantity was over 10 µM.

And the “EC50 schizont net growth area” value [3, 6]?
The value was 0.395 µM.

Which maximum inhibition [1, 7] does the source give for `Cc1ccnc(Nc2nc(-c3ccccn3)cs2)c1` here?
Its maximum inhibition is 84.1%.

What about the CC20 hepatic nuclei [2, 7] of the same compound?
The CC20 hepatic nuclei was over 5.56 µM.

And the EC50 hypnozoite quantity [3, 7]?
The EC50 hypnozoite quantity was over 50 µM.

And the “EC50 schizont net growth area” value [3, 7]?
Its value is 1.79 µM.

With `Cc1ccc(Nc2nc(-c3ccccn3)cs2)nc1` as the compound, how does the maximum inhibition [1, 8] read?
Its maximum inhibition is 90.9%.

What about the CC20 hepatic nuclei [2, 8] of the same compound?
The CC20 hepatic nuclei was over 50 µM.

And the EC50 hypnozoite quantity [3, 8]?
Its EC50 hypnozoite quantity is 19.9 µM.

How did the maximum inhibition [1, 9] turn out when `CCN(CC)CCCNc1nc(-c2ccc(Cl)cc2)nc2ccccc12` was run?
Its maximum inhibition is 99.6%.

What about the CC20 hepatic nuclei [2, 9] of the same compound?
Its CC20 hepatic nuclei is 40.2 µM.

What about the EC50 hypnozoite quantity [3, 9] of the same compound?
Its EC50 hypnozoite quantity is over 50 µM.

And the “EC50 schizont net growth area” value [3, 9]?
Its value is over 5.56 µM.

How did the maximum inhibition [1, 4] turn out when `CCOc1ccc(CCC2CCN(C(C)c3nc(N)nc(N(C)C)n3)CC2)cc1` (stereo not given) was run?
The maximum inhibition was 64.7%.

What about the CC20 hepatic nuclei [2, 4] of the same compound?
The CC20 hepatic nuclei was over 10 µM.

And the EC50 hypnozoite quantity [3, 4]?
Its EC50 hypnozoite quantity is over 10 µM.

What about the “EC50 schizont net growth area” value [3, 4] of the same compound?
The value was over 3.33 µM.

For `CCOc1ccc2nc(C)cc(Nc3ccc(N(C)C)cc3)c2c1`, which maximum inhibition [1, 9] is on record?
The maximum inhibition was 84.6%.

And the CC20 hepatic nuclei [2, 9]?
The CC20 hepatic nuclei was 16.2 µM.

What about the EC50 hypnozoite quantity [3, 9] of the same compound?
Its EC50 hypnozoite quantity is over 50 µM.

And the “EC50 schizont net growth area” value [3, 9]?
The value was over 16.7 µM.

For `CC[C@H](NC(=O)[C@H](C)NC)C(=O)N1C[C@@H](O)C[C@H]1Cc1c(-c2[nH]c3cc(F)ccc3c2C[C@@H]2C[C@H](O)CN2C(=O)[C@H](CC)NC(=O)[C@H](C)NC)[nH]c2cc(F)ccc12`, which maximum inhibition [1, 8] is on record?
Its maximum inhibition is 73%.

And the CC20 hepatic nuclei [2, 8]?
Its CC20 hepatic nuclei is over 5.56 µM.

And the EC50 hypnozoite quantity [3, 8]?
The EC50 hypnozoite quantity was over 50 µM.

How did the maximum inhibition [1, 8] turn out when `CC[C@H]1CN2CCc3cc(OC)c(OC)cc3[C@@H]2C[C@@H]1C[C@H]1NCCc2cc(OC)c(OC)cc21` was run?
Its maximum inhibition is 107%.

And the CC20 hepatic nuclei [2, 8]?
Its CC20 hepatic nuclei is 2.42 µM.

What about the EC50 hypnozoite quantity [3, 8] of the same compound?
Its EC50 hypnozoite quantity is over 50 µM.

And the “EC50 schizont net growth area” value [3, 8]?
The value was 0.306 µM.

How did the maximum inhibition [1, 6] turn out when `CCn1ncc2c(NC3CCOCC3)c(CNC(=O)c3ccnn3C)c(C)nc21` was run?
The maximum inhibition was 103%.

What about the CC20 hepatic nuclei [2, 6] of the same compound?
Its CC20 hepatic nuclei is over 50 µM.

And the EC50 hypnozoite quantity [3, 6]?
The EC50 hypnozoite quantity was over 50 µM.

What about the “EC50 schizont net growth area” value [3, 6] of the same compound?
Its value is 0.0266 µM.

`CN(C(=O)c1cc2c(-c3cncnc3)cccc2[nH]1)c1ccccc1` was tested. Which maximum inhibition [1, 5] did it give?
The maximum inhibition was 84.7%.

And the CC20 hepatic nuclei [2, 5]?
The CC20 hepatic nuclei was over 50 µM.

And the EC50 hypnozoite quantity [3, 5]?
The EC50 hypnozoite quantity was over 50 µM.

And the “EC50 schizont net growth area” value [3, 5]?
The value was 3.11 µM.

Which results are given for `CN(C)CCCNc1c2ccccc2nc2ccccc12`?
maximum inhibition [1, 8]: 108%; CC20 hepatic nuclei [2, 8]: 5.73 µM; EC50 hypnozoite quantity [3, 8]: > 50 µM; EC50 schizont net growth area [3, 8]: 9.24 µM

How did the maximum inhibition [1, 10] turn out when `CN1CCN(C(c2cccs2)c2ccc3cccnc3c2O)CC1` (stereo not given) was run?
The maximum inhibition was 60.5%.

What about the CC20 hepatic nuclei [2, 10] of the same compound?
Its CC20 hepatic nuclei is over 10 µM.

What about the EC50 hypnozoite quantity [3, 10] of the same compound?
Its EC50 hypnozoite quantity is over 10 µM.

Which maximum inhibition [1, 8] does the source give for `CN1CCN(c2ccc(Nc3c4ccccc4nc4ccccc34)cc2)CC1` here?
Its maximum inhibition is 111%.

And the CC20 hepatic nuclei [2, 8]?
The CC20 hepatic nuclei was 5.55 µM.

And the EC50 hypnozoite quantity [3, 8]?
The EC50 hypnozoite quantity was over 50 µM.

And the “EC50 schizont net growth area” value [3, 8]?
The value was 6.04 µM.

Which results are given for `CNC(=S)N/N=C(\C)c1ccccn1`?
maximum inhibition [1, 8]: 100%; CC20 hepatic nuclei [2, 8]: > 50 µM; EC50 hypnozoite quantity [3, 8]: 1.92 µM; EC50 schizont net growth area [3, 8]: 4.44 µM

`COc1cc(-c2cc(-c3ccc(S(C)(=O)=O)cc3)cnc2N)ccc1O` was tested. Which maximum inhibition [1, 5] did it give?
The maximum inhibition was 80.2%.

What about the CC20 hepatic nuclei [2, 5] of the same compound?
Its CC20 hepatic nuclei is over 50 µM.

And the EC50 hypnozoite quantity [3, 5]?
Its EC50 hypnozoite quantity is over 50 µM.

And the “EC50 schizont net growth area” value [3, 5]?
The value was over 16.7 µM.

What does the source list for `COc1ccc(-c2cncc3ccc(C(=O)NCCCn4ccnc4)nc23)cc1`?
maximum inhibition [1, 5]: 70.8%; CC20 hepatic nuclei [2, 5]: 44.8 µM; EC50 hypnozoite quantity [3, 5]: > 50 µM; EC50 schizont net growth area [3, 5]: 26 µM

With `COc1ccc(C(=O)C(CCC(CNC(C)(C)C)C(=O)c2ccc(OC)cc2)CNC(C)(C)C)cc1` (stereo not given) as the compound, how does the maximum inhibition [1, 6] read?
The maximum inhibition was 88.7%.

What about the CC20 hepatic nuclei [2, 6] of the same compound?
Its CC20 hepatic nuclei is 40.8 µM.

And the EC50 hypnozoite quantity [3, 6]?
Its EC50 hypnozoite quantity is over 50 µM.

And the “EC50 schizont net growth area” value [3, 6]?
The value was 16.6 µM.

With `COc1ccc(-c2c(C)nn3c(N)c(C#N)cnc23)cc1OC` as the compound, how does the maximum inhibition [1, 9] read?
The maximum inhibition was 95.7%.

And the CC20 hepatic nuclei [2, 9]?
Its CC20 hepatic nuclei is over 50 µM.

And the EC50 hypnozoite quantity [3, 9]?
Its EC50 hypnozoite quantity is over 50 µM.

And the “EC50 schizont net growth area” value [3, 9]?
Its value is 0.599 µM.

For `COc1ccc(-c2cnc3ccc(N4CCCC4)nn23)cc1OC`, which maximum inhibition [1, 11] is on record?
Its maximum inhibition is 103%.

And the CC20 hepatic nuclei [2, 11]?
The CC20 hepatic nuclei was over 16.7 µM.

What about the EC50 hypnozoite quantity [3, 11] of the same compound?
Its EC50 hypnozoite quantity is over 50 µM.

And the “EC50 schizont net growth area” value [3, 11]?
Its value is over 16.7 µM.

For `COc1ccc(-c2nn(C(C)C)c3ncnc(N)c23)cc1OC`, which maximum inhibition [1, 5] is on record?
The maximum inhibition was 71.3%.

What about the CC20 hepatic nuclei [2, 5] of the same compound?
Its CC20 hepatic nuclei is over 50 µM.

What about the EC50 hypnozoite quantity [3, 5] of the same compound?
Its EC50 hypnozoite quantity is over 50 µM.

What about the “EC50 schizont net growth area” value [3, 5] of the same compound?
The value was 0.294 µM.
